The target in this assay is Receptor tyrosine-protein kinase erbB-2 (Homo sapiens, UniProt P04626). Description: ErbB Enzyme Assay. As for the experimental part: The kinases were incubated with 250 nM TK-substrate biotin (CisBio, part of cat #62TK0PEC) at 1 mM ATP along with test compounds in a buffer consisting of 25 mM HEPES, pH 7.4, 10 mM MgCl2, 0.01% Triton X-100, and 2% DMSO in a volume of 8 uL. Compounds were prepared as a three-fold serial dilution in DMSO and added to the assay to give the appropriate final concentration. After 30-minute incubation at 22 C., the reaction was quenched by adding 8 uL of quench solution containing 62.5 nM Sa-XL665 and 0.25x TK-Ab-Cryptate in HTRF detection buffer (all from CisBio, part of cat #62TK0PEC). After a 1-hour incubation at 22 C., the extent of reaction was determined using a PerkinElmer EnVision multimode plate reader via HTRF dual wavelength detection, and the percent of control (POC) was calculated using a ratiometric emission factor.
Sequence of Receptor tyrosine-protein kinase erbB-2 (P04626 whole entry): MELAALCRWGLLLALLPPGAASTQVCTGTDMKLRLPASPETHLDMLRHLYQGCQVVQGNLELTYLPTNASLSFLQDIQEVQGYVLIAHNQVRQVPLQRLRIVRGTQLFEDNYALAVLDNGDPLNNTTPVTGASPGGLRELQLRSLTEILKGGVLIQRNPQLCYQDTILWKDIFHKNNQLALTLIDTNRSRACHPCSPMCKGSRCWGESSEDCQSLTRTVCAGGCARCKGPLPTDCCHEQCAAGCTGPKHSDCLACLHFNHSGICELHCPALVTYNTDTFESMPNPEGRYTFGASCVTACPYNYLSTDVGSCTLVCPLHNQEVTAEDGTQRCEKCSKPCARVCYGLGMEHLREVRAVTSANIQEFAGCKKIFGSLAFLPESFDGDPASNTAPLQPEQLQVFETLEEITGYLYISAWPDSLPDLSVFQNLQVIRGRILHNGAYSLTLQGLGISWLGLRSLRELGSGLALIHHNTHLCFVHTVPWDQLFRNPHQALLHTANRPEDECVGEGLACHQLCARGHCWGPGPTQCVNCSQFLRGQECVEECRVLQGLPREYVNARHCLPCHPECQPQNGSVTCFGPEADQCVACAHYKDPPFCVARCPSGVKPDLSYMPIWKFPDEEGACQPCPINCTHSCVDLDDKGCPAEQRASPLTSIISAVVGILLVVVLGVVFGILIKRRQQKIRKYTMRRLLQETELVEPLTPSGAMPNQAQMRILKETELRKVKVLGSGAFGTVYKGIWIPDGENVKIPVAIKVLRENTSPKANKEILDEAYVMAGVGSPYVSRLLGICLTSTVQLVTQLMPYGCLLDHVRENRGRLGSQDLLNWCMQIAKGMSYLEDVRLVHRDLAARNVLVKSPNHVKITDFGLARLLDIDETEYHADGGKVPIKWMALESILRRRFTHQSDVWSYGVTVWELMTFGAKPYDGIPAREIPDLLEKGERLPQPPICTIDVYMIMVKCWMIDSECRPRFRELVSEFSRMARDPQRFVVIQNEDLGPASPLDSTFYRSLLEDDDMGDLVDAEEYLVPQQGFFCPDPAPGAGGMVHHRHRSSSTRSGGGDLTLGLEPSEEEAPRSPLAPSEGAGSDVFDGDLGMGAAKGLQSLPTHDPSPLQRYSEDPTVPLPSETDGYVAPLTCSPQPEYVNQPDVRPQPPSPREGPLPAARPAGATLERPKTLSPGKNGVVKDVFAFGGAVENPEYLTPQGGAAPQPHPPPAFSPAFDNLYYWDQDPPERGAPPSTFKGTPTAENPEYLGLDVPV

With `Cc1cc(Nc2ncnc3cnc(N(C)C[C@@H](C)O)nc23)ccc1Oc1ccc2c(c1)ncn2C` [US11834453, Example 189], the IC50 stood at 0.0322 µM.
Next, `Cc1cc(Nc2ncnc3cnc(N(C)CCO)nc23)ccc1Oc1ccc2c(c1)ncn2C` [US11834453, Example 208]: 0.0256 µM.
Then `Cc1cc(Nc2ncnc3cnc(N4CCCO4)nc23)ccc1Oc1ccc2c(c1)ncn2C` [US11834453, Example 178], with 0.0671 µM; and `Cc1cc(Nc2ncnc3cnc(N4CC(C)(O)CO4)nc23)ccc1Oc1ccc2c(c1)ncn2C` (stereo not drawn) [US11834453, Example 191], with 0.171 µM.
Consider `Cc1cc(Nc2ncnc3cnc(N(C)C[C@H](C)O)nc23)ccc1Oc1ccc2c(c1)ncn2C` [US11834453, Example 195], for which half-maximal inhibition (IC50) required 0.0375 µM.
Then `Cc1cc(Nc2ncnc3cnc(N4CC5C6CCC(O6)C5C4)nc23)ccc1Oc1ccc2c(c1)ncn2C` (stereo not drawn) [US11834453, Example 16], with 0.0606 µM; and `Cc1cc(Nc2ncnc3cnc(N4C[C@H]5CC[C@@H]4CO5)nc23)ccc1Oc1ccn2ncnc2c1` [US11834453, Example 127], with 0.114 µM; and `CCOc1ncc2ncnc(Nc3ccc(Oc4ccc5c(c4)ncn5C)c(C)c3)c2n1` [US11834453, Example 13], with 0.121 µM.

The values above are taken from BindingDB's records for patent US11834453 (Array Biopharma, 2023).
